{"source": "patent US10406232B2", "about": "“Oral delivery compositions for treating dermatitis disorders in mammals” (Vets Plus, Inc., priority 2015, dated 2019)", "origin": "cited, not measured here", "test_system": "dendritic cells (DCs)", "conditions": "through sequential p38 MAP kinase phosphorylation and caspase 3-activation"}
{"smiles": "CC(C)[C@]12O[C@H]1[C@@H]1O[C@]13[C@]1(O[C@H]1C[C@H]1C4=C(CC[C@@]13C)C(=O)OC4)[C@@H]2O", "note": "[triptolide]", "values": [{"measurement": "concentration that induces apoptosis of DCs", "value": "≥ 20", "unit": "ng/mL"}]}
